Biological target: T1, purified recombinant human p38 alpha MAPK (Homo sapiens, UniProt Q16539)
T1 construct: purchased Millipore, USA
Experiment: Inhibition of p38 alpha MAPK activity: TR-FRET kinase assay
Type: biochemical
Settings: Concentration 1 μM; for inhibition at 1 µM: read-out: P38α Inhibition
Protocol: Inhibition of p38 Alpha MAPK Activity: Time-Resolved Fluorescence Resonance Energy Transfer Kinase Standard Assay (TR-FRET Assay)
Compounds of present invention at various concentrations were premixed with DMSO. The experiment was initiated by mixing 0.5% 1.0% DMSO as vehicle/compounds with purified recombinant human p38 alpha MAPK (Millipore, USA) in the wells and 15 min incubation at RT. Thereafter, 30 nM of Biotinylated GST-ATF2 (Activation Transcription Factor2) and 100 μM of ATP were added in to the wells containing reaction mixture, followed by reincubation for 60 minutes at RT. Reaction was terminated by addition of 10 mM of EDTA and detection reagent containing anti-phosphothreonine ATF2 antibody (Perkin Elmer, USA) labelled with europium chelate and APC (Allophycocyanin) labeled streptavidin, into the reaction mixture which was further incubated for 60 minutes at room temperature. The degree of phosphorylation of the substrate (GST-ATF2) was measured using Envision multimode reader (Perkin Elmer). Percentage inhibition of p38 kinase activity was calculated by determining ratio of specific europium 665 nm energy transfer signal to reference 615 nm signal.

T1 sequence (Q16539 whole entry): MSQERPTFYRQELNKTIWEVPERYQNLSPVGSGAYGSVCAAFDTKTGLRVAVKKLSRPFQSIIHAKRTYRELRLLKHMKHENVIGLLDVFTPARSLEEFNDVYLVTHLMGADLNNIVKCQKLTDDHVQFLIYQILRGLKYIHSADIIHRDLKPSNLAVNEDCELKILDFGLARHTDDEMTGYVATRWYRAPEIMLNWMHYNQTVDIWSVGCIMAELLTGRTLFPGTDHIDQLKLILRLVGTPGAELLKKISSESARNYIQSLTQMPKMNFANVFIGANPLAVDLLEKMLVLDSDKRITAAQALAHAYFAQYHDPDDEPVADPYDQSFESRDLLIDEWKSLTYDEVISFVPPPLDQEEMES

Row | P38α Inhibition | inhibition at 1 µM | Molecule
1 | +++++ (+++++ = Inhibition ≥80% ≤ 100%) |  | 1-(3-tert-butyl-1-phenyl-1H-pyrazol-5-yl)-3-(2-{[3-(hydroxymethyl)-2-methylimidazo[2,1-b][1,3]benzothiazol-7-yl]oxy}benzyl)urea [Compound 38]
2 | ++ (++ = Inhibition ≥20% ≤ 40%) |  | 7-{[4-({[3-tert-butyl-1-(4-hydroxyphenyl)-1H-pyrazol-5-yl]carbamoyl}amino)phenyl]sulfanyl}-N-(2-hydroxyethyl)imidazo[2,1-b][1,3]benzothiazole-3-carboxamide [Compound 11]
3 |  | 40 to 60% | CC(C)(C)c1cc(NC(=O)Nc2ccc(Oc3ccc4c(c3)sc3nc(C(=O)NCCN5CCOCC5)cn34)cc2)n(-c2ccc(O)c(Cl)c2)n1 [Compound 1, 7-[4-({[3-tert-butyl-1-(3-chloro-4-hydroxyphenyl)-1H-pyrazol-5-yl]carbamoyl}amino)phenoxy]-N-[2-(morpholin-4-yl)ethyl]imidazo[2,1-b][1,3]benzothiazole-2-carboxamide]
4 |  | 60 to 80% | Cc1ccc(-n2nc(C(C)(C)C)cc2NC(=O)Nc2ccc(Oc3ccc4c(c3)sc3nc(C(=O)NCCN5CCOCC5)cn34)cc2)cc1 [Compound 2, 7-[4-({[3-tert-butyl-1-(4-methylphenyl)-1H-pyrazol-5-yl]carbamoyl}amino)phenoxy]-N-[2-(morpholin-4-yl)ethyl]imidazo[2,1-b][1,3]benzothiazole-2-carboxamide]
5 |  | 40 to 60% | Cc1ccc(-n2nc(C(C)(C)C)cc2NC(=O)Nc2ccc(Oc3ccc4c(c3)sc3nc(C(=O)NC(CO)c5ccccc5)cn34)cc2)cc1 (stereo not drawn) [Compound 3, 7-[4-({[3-tert-butyl-1-(4-methylphenyl)-1H-pyrazol-5-yl]carbamoyl}amino)phenoxy]-N-(2-hydroxy-1-phenylethyl)imidazo[2,1-b][1,3]benzothiazole-2-carboxamide]
6 |  | 80 to 100% | Cc1ccc(-n2nc(C(C)(C)C)cc2NC(=O)Nc2ccc(Oc3ccc4c(c3)sc3nc(C(=O)NCCO)cn34)cc2)cc1 [Compound 4, 7-[4-({[3-tert-butyl-1-(4-methylphenyl)-1H-pyrazol-5-yl]carbamoyl}amino)phenoxy]-N-(2-hydroxyethyl)imidazo[2,1-b][1,3]benzothiazole-2-carboxamide]
7 |  | 20 to 40% | CCOC(=O)c1cnc2sc3cc(Oc4ccc(NC(=O)Nc5cc(C(C)(C)C)nn5-c5ccc(OC)c(Cl)c5)cc4)ccc3n12 [Compound 5, ethyl 7-[4-({[3-tert-butyl-1-(3-chloro-4-methoxyphenyl)-1H-pyrazol-5-yl]carbamoyl}amino)phenoxy]imidazo[2,1-b][1,3]benzothiazole-3-carboxylate]
8 |  | 80 to 100% | COc1ccc(-n2nc(C(C)(C)C)cc2NC(=O)Nc2ccc(Oc3ccc4c(c3)sc3ncc(C(=O)O)n34)cc2)cc1Cl [Compound 6, 7-[4-({[3-tert-butyl-1-(3-chloro-4-methoxyphenyl)-1H-pyrazol-5-yl]carbamoyl}amino)phenoxy]imidazo[2,1-b][1,3]benzothiazole-3-carboxylic acid]
9 |  | 60 to 80% | COc1ccc(-n2nc(C(C)(C)C)cc2NC(=O)Nc2ccc(Oc3ccc4c(c3)sc3ncc(C(=O)NCCO)n34)cc2)cc1Cl [Compound 7, 7-[4-({[3-tert-butyl-1-(3-chloro-4-methoxyphenyl)-1H-pyrazol-5-yl]carbamoyl}amino)phenoxy]-N-(2-hydroxyethyl)imidazo[2,1-b][1,3]benzothiazole-3-carboxamide]
10 |  | 80 to 100% | CC(C)(C)c1cc(NC(=O)Nc2ccc(Oc3ccc4c(c3)sc3ncc(C(=O)O)n34)cc2)n(-c2ccc(O)c(Cl)c2)n1 [Compound 8, 7-[4-({[3-tert-butyl-1-(3-chloro-4-hydroxyphenyl)-1H-pyrazol-5-yl]carbamoyl}amino)phenoxy]imidazo[2,1-b][1,3]benzothiazole-3-carboxylic acid]
11 |  | 80 to 100% | CC(C)(C)c1cc(NC(=O)Nc2ccc(Sc3ccc4c(c3)sc3ncc(C(=O)O)n34)cc2)n(-c2ccc(O)cc2)n1 [Compound 9, 7-{[4-({[3-tert-butyl-1-(4-hydroxyphenyl)-1H-pyrazol-5-yl]carbamoyl}amino)phenyl]sulfanyl}imidazo[2,1-b][1,3]benzothiazole-3-carboxylic acid]
12 |  | 80 to 100% | COc1ccc(-n2nc(C(C)(C)C)cc2NC(=O)Nc2ccc(Sc3ccc4c(c3)sc3ncc(C(=O)O)n34)cc2)cc1 [Compound 10, 7-{[4-({[3-tert-butyl-1-(4-methoxyphenyl)-1H-pyrazol-5-yl]carbamoyl}amino)phenyl]sulfanyl}imidazo[2,1-b][1,3]benzothiazole-3-carboxylic acid]
13 |  | 80 to 100% | CCOC(=O)c1cnc2sc3cc(Oc4ccccc4CNC(=O)Nc4cc(C(C)(C)C)nn4-c4ccc(OC)cc4)ccc3n12 [Compound 12, ethyl 7-{2-[({[3-tert-butyl-1-(4-methoxyphenyl)-1H-pyrazol-5-yl]carbamoyl}amino)methyl]phenoxy}imidazo[2,1-b][1,3]benzothiazole-3-carboxylate]
14 |  | 80 to 100% | CC(C)(C)c1cc(NC(=O)NCc2ccccc2Oc2ccc3c(c2)sc2ncc(C(=O)O)n23)n(-c2ccc(O)cc2)n1 [Compound 13, 7-{2-[({[3-tert-butyl-1-(4-hydroxyphenyl)-1H-pyrazol-5-yl]carbamoyl}amino)methyl]phenoxy}imidazo[2,1-b][1,3]benzothiazole-3-carboxylic acid]
15 |  | 80 to 100% | CC(C)(C)c1cc(NC(=O)NCc2ccccc2Oc2ccc3c(c2)sc2ncc(C(=O)NCCO)n23)n(-c2ccc(O)cc2)n1 [Compound 14, 7-{2-[({[3-tert-butyl-1-(4-hydroxyphenyl)-1H-pyrazol-5-yl]carbamoyl}amino)methyl]phenoxy}-N-(2-hydroxyethyl)imidazo[2,1-b][1,3]benzothiazole-3-carboxamide]
16 |  | 60 to 80% | COc1ccc(-n2nc(C(C)(C)C)cc2NC(=O)Nc2ccc(Oc3ccc4c(c3)sc3ncc(CO)n34)cc2)cc1 [Compound 15, 1-[3-tert-butyl-1-(4-methoxyphenyl)-1H-pyrazol-5-yl]-3-(4-{[3-(hydroxymethyl)imidazo[2,1-b][1,3]benzothiazol-7-yl]oxy}phenyl)urea]
17 |  | 80 to 100% | CC(C)(C)c1cc(NC(=O)NCc2ccccc2Oc2ccc3c(c2)sc2ncc(CO)n23)n(-c2ccc(O)cc2)n1 [Compound 16, 1-[3-tert-butyl-1-(4-hydroxyphenyl)-1H-pyrazol-5-yl]-3-(2-{[3-(hydroxymethyl)imidazo[2,1-b][1,3]benzothiazol-7-yl]oxy}benzyl)urea]
18 |  | 80 to 100% | CCOC(=O)c1cnc2sc3cc(Oc4ccccc4CNC(=O)Nc4cc(C(C)(C)C)nn4-c4ccc(O)cc4)ccc3n12 [Compound 17, Ethyl 7-{2-[({[3-tert-butyl-1-(4-hydroxyphenyl)-1H-pyrazol-5-yl]carbamoyl}amino)methyl]phenoxy}imidazo[2,1-b][1,3]benzothiazole-3-carboxylate]
19 |  | 40 to 60% | CC(C)(C)c1cc(NC(=O)Nc2ccc(Sc3ccc4c(c3)sc3ncc(CO)n34)cc2)n(-c2ccc(O)cc2)n1 [Compound 18, 1-[3-tert-butyl-1-(4-hydroxyphenyl)-1H-pyrazol-5-yl]-3-(4-{[3-(hydroxymethyl)imidazo[2,1-b][1,3]benzothiazol-7-yl]sulfanyl}phenyl)urea]
20 |  | 80 to 100% | CC(C)(C)c1cc(NC(=O)NCc2ccccc2Oc2ccc3c(c2)sc2ncc(C(=O)O)n23)n(-c2ccc(O)c(Cl)c2)n1 [Compound 19, 7-{2-[({[3-tert-butyl-1-(3-chloro-4-hydroxyphenyl)-1H-pyrazol-5-yl]carbamoyl}amino)methyl]phenoxy}imidazo[2,1-b][1,3]benzothiazole-3-carboxylic acid]
21 |  | 80 to 100% | CC(C)(C)c1cc(NC(=O)NCc2ccccc2Oc2ccc3c(c2)sc2ncc(C(=O)NCCO)n23)n(-c2ccc(O)c(Cl)c2)n1 [Compound 20, 7-{2-[({[3-tert-butyl-1-(3-chloro-4-hydroxyphenyl)-1H-pyrazol-5-yl]carbamoyl}amino)methyl]phenoxy}-N-(2-hydroxyethyl)imidazo[2,1-b][1,3]benzothiazole-3-carboxamide]
22 |  | 80 to 100% | CC(C)(C)c1cc(NC(=O)NCc2ccccc2Oc2ccc3c(c2)sc2ncc(C(=O)NC(CO)CO)n23)n(-c2ccc(O)c(Cl)c2)n1 [Compound 21, 7-{2-[({[3-tert-butyl-1-(3-chloro-4-hydroxyphenyl)-1H-pyrazol-5-yl]carbamoyl}amino)methyl]phenoxy}-N-(1,3-dihydroxypropan-2-yl)imidazo[2,1-b][1,3]benzothiazole-3-carboxamide]
23 |  | 80 to 100% | CC(C)(C)c1cc(NC(=O)NCc2ccccc2Oc2ccc3c(c2)sc2ncc(CSCCO)n23)n(-c2ccc(O)c(Cl)c2)n1 [Compound 23, 1-[3-tert-butyl-1-(3-chloro-4-hydroxyphenyl)-1H-pyrazol-5-yl]-3-{2-[(3-{[(2-hydroxyethyl)sulfanyl]methyl}imidazo[2,1-b][1,3]benzothiazol-7-yl)oxy]benzyl}urea]
24 |  | 40 to 60% | CC(C)(C)c1cc(NC(=O)NCc2ccccc2Sc2ccc3c(c2)sc2ncc(C(=O)O)n23)n(-c2ccc(O)c(Cl)c2)n1 [Compound 24, 7-({2-[({[3-tert-butyl-1-(3-chloro-4-hydroxyphenyl)-1H-pyrazol-5-yl]carbamoyl}amino)methyl]phenyl}sulfanyl)imidazo[2,1-b][1,3]benzothiazole-3-carboxylic acid]

Source: US10227361B2, “Fused imidazobenzothiazole compounds” (TORRENT PHARMACEUTICALS LIMITED, priority 2014, dated 2019)
